± gives the expanded uncertainty stated by the source.
Key:
[1] = 298.15 K; 101.33 kPa; Liquid
[2] = refractive index (Na D-line) (dimensionless); details: 298.15 K; 101.33 kPa; Liquid; Standard Abbe refractometry

**Q.** Which results are given for CO [methanol]?
**A.** mass density [1]: 786.63 ± 0.61 kg/m3; refractive index [2]: 1.3264 ± 0.0007

Reference: the NIST ThermoML archive (doi:10.1016/j.jct.2005.01.004)
